Experimental data reported in patent US20090263410A1, “USE OF TGF-B1 INHIBITOR PEPTIDES IN THE PREPARATION OF AN IMMUNE RESPONSE MODULATING AGENT” (Proyecto De Biomedicina Cima, S.L., priority 2005, published 2009).

What was measured:
[1] = tested on: dendritic cells derived from splenocytes; test: Surface markers of splenocyte-derived dendritic cells by flow cytometry; assay type: cell-based, C57 mouse; details: incubation 72 hours; p144 50 μg/ml or anti (TGF-β) antibody 20 μg/ml; medium with GM-CSF+TGF-β1
Method: After sacrificing an 8-week old male C57 mouse, its spleen was extracted in sterile conditions and it was homogenised on a plate with clean medium to produce a cell suspension. The cells were centrifuged for 5 minutes at 1000 rpm and the cell sediment obtained was resuspended with 1 ml/spleen of ACK lysis solution (0.15M NH4Cl, 1 mM KHCO3, […] sodium salt-EDTA solution, pH 7.2-7.4) for 1 minute at 37° C. Next, the cells were centrifuged and washed with 10 ml of cold R10 medium (RPMI-1640, 10% FBS, Glutamine, 2×10^−5 M 2-Mercaptoethanol) to centrifuge and wash once more. Finally, the cells were resuspended in 50 ml of R10 medium. 6-well plates were prepared (Costar #3471) treating them with 1 ml per well of R10 medium to differentiate splenocytes from dendritic cells [R10+10 ng/ml of mouse GM-CSF (Peprotec, EC LTD, London, UK)+1 ng/ml of TGF-β1 (RD Systems, Minneapolis, USA)], for 15 minutes at room temperature. Next, 2 ml of the cell suspension were added to each well and they were incubated at 37° C. and 5% CO2. During the first weeks, the medium was changed twice, by the elimination of 1 ml of supernatant and the addition of 1 ml of fresh medium (R10+GM-CSF+TGF-β1) for dendritic cells. After these two weeks, the medium was separated. 1 ml per well of dissociation medium in enzyme-free BPS (GIBCO BRL) was added to the plates, and the medium was incubated at 37° C., then it was removed and 2 ml of tepid medium (R10+GM-CSF+TGF-β1) was added. Next, the cells were lifted with slow pipetting and the lifted cells were centrifuged at 1000 rpm and they were resuspended in fresh medium (R10+GM-CSF+TGF-β1). The cells thus obtained can be reamplified by seeding on a plate, repeating the initial process. […]

CT26 cells = test: Subcutaneous CT26 tumour model after AH1 immunization; assay type: in vivo, BALB/c mice; details: 50 μg AH1 day 0; 5×10^5 CT26 s.c. day 10; day 10-30 PS or 50 μg p144 every 48 hours i.p.
Method: Next, the effect of p144 was studied on a tumour progression model which was less aggressive than the intravenous administration of CT26. In this new model, mice were immunized with 50 μg of AH1 on day 0 and ten days later they were administered 5×10^5 CT26 cells by subcutaneous route. Furthermore, with the aim of testing the effect of blocking TGF-β1 on protection against CT26 tumour cells, another two groups of mice (groups 2 and 3) were treated on alternate days by intraperitoneal route between days 10-30 with 50 μg of p144.

Substance: p144: peptide inhibiting TGF-β1 whose amino acid sequence corresponds to SEQ ID NO: 1 (TSLDASIIWAMMQN; Synthetic Construct from human TGB-Beta1 type III receptor.Domain730-743)
- CD11c expression (fluorescence level) [1]: negative effect
- CD80 expression (fluorescence level) [1]: negative effect
- MHC I expression (fluorescence level) [1]: negative effect
- Animals protected on day 50 (CT26 cells): 4/10
